Results on four substances are retold here after patent US20180185448A1, “COMPOSITION AND METHOD FOR INDUCING ANTI-INFLAMMATORY RESPONSE” (Vital Therapies, Inc., priority 2015, published 2018).

Assay [1] relates to monolayer C3A cells. The experiment in a line: Monolayer C3A cells incubated with inflammatory cytokines (IL-6, IL-1β, TNF-α); secreted factors assayed in conditioned media by ELISA/multiplex. It counts as cell-based, human. As to conditions: for AAT secretion at 54 h: 54 h compared with 24 h; for TNF-α secretion: 24 and 48 h; for IL-10 secretion / IL-10 secretion at 48 hr: 10 ng/mL; for IL-10 secretion: 24 h vs controls; for IL-10 secretion at 48 hr: 48 hr compared with 24 h. On the procedure: (§1) Conditioned media from C3A cells of an active cartridge of a treatment system of the disclosure were assayed for APP, cytokines, and other mediators that affect inflammation using singleplex ELISA kits (R&D Systems, abcam), chemiluminescent multiplex array kits (Aushon) and/or contracted services (Myriad Rules Based Medicine). Inflammatory cytokines reported to be present in hepatitis patient serum (IL-6 [0, 1, 10, 100 ng/mL]±IL-1β [0, 1, 10, 100 ng/mL]) were incubated with monolayer, or C3A cells recovered from the treatment system, for 24 or 54 h, and conditioned media were assayed for the APP IL-1 receptor antagonist (IL-1Ra), alpha-1-antitrypsin (AAT), and albumin. Lipopolysaccharide (LPS) (0, 0.01, 0.1, 1, 10 EU/mL) was incubated with monolayer C3A cells for 24 h and assayed for APP.
Conditioned media from active cartridges including qualified C3A cells were assayed for APP, cytokines, and other mediators that affect inflammation. Inflammatory cytokines present in patient serum (IL-6±IL-1β) were incubated with monolayer, or C3A cells recovered from the system, for 24 or 54 h and media assayed for IL-1 receptor antagonist (IL-1Ra) and alpha-1-antitrypsin (AAT).
(§2) C3A cells of the invention were plated in monolayer and incubated with LPS or with inflammatory cytokines (IL-6, IL-1β, and/or TNF-α) for 24, 48, or 54 h. Cytokines were dosed individually or in combination at 0, 1, 10, or 100 ng/mL as indicated in each figure. Separate C3A cells were incubated with LPS at 0, 0.01, 0.1, 1, or 10 EU/mL for 24 h.
(§3) Additionally, intact C3A tissue (C3A cells cultured three-dimensionally between polysulfone hollow fibers) was excised from C3A cell cartridges and dosed in conjunction with 10 ng/mL IL-1β and 10 ng/mL IL-6 for 24 h. The supernatants from these monolayer C3A cell and ELAD C3A tissue experiments were assayed for IL-1Ra, AAT, IL-10, or albumin via in-house and commercial ELISA kits (R&D Systems, abcam), contracted services for multiplex ELISAs (Myriad), or chemiluminescent multiplex assay kits (Aushon).
For orientation: An ELISA detects its analyte on a solid surface through an enzyme-linked reagent.

Assay [2] has as its system monolayer C3A cells. The experiment in a line: Monolayer C3A cells incubated with LPS for 24 h; IL-1Ra and AAT assayed in media. It counts as cell-based, human. On the procedure:
as §1, §2, §3

[3] abbreviates: FIG. 18 experiment, monolayer C3A cells 2.6×10^5 cells/cm^2, TNF-α 1, 10 or 100 ng/mL, IL-1β 10 ng/mL.
Where [4] appears, read: Example 1, monolayer C3A cultures.
[5] abbreviates: Example 3, monolayer C3A cells 1.3×10^5 cells/cm, 24 and 54 h, n=3.
Setting [6] is: Example 3, monolayer C3A cells 1.3×10^5 cells/cm^2.
Setting [7] is: Example 3, monolayer, 24, 48 hr.
The mark [8] stands for this setting: Example 3, monolayer, 24 hr, 48 hr.
Where [9] appears, read: Examples 1-2, monolayer C3A cells, 24 h, single replicates of pooled triplicate wells.
Setting [10] is: Examples 1-2, monolayer C3A cells.
Where [11] appears, read: monolayer C3A cells 2.6×10^5 cells/cm^2.
The mark [12] stands for this setting: monolayer C3A cells, IL-6 ± IL-1β 1-100 ng/mL, 24 h (or time not stated).

Entries after “also recorded” stand apart in the source; their conditions may differ.

With TNF-α, the “IL-1Ra secretion at the highest dose” value in the assay on monolayer C3A cells [1] (FIG. 18 experiment, TNF-α 100 ng/mL) is “observed decrease”. The IL-1Ra secretion result in the assay with monolayer C3A cells [1] (setting [3]) is on record as “did not increase; also recorded: not TNF-α alone”. In addition, the APP expression entry in the assay on monolayer C3A cells [1] (TNF-α, except when dosed 10,000-fold higher than measured in culture) was “did not significantly impact”.
As to Interleukin-6 [IL-6], in the assay with monolayer C3A cells [1] (setting [4]), the IL-10 increase was determined as 10 fold, the IL-18 increase stood at 9 fold, the MCP-1 increase amounted to 15 fold and the TNF-β increase came to 12 fold. Besides, the fibrinogen increase in the assay on monolayer C3A cells [1] (setting [4]) is 6 fold. The AAT secretion entry in the assay on monolayer C3A cells [1] (setting [5]) was “no apparent effect; also recorded: not affected”. In addition, in the assay with monolayer C3A cells [1] (setting [6]), the fibrinogen secretion result is given as “increased” and the α-2 macroglobulin secretion entry was “increased; also recorded: modestly upreguated”. In the assay on monolayer C3A cells [1] (setting [7]), the “Fibrinogen increase vs. control” value is listed as about 6 fold, the “IL-18 increase vs. control” value was about 9 fold, the “Monocyte chemotactic protein 1 (MCP-1) increase vs. control” value was about 15 fold and the “TNF-β increase vs. control” value is about 12 fold. Also, in the assay on monolayer C3A cells [1] (Example 3, monolayer, 24 hr), the “Granulocyte-colony stimulating factor (G-CSF) increase vs. control” value is about 50 fold, the “IL-7 increase vs. control” value was about 10 fold, the “IL-10 increase vs. control” value is listed as about 10 fold and the “Granulocyte-colony stimulating factor (G-CSF) increase with IL-6 vs. control” value is recorded as about 300 fold. Besides, in the assay on monolayer C3A cells [1] (setting [8]), the “IL-8 increase vs. control” value was ~2,000 fold, the “Stem cell factor (SCF) increase vs. control” value is recorded as about 100 fold and the “TNFα increase vs. control” value is about 25 fold. In the assay with monolayer C3A cells [1] (Example 3, monolayer, 48 hr), the “Granulocyte-colony stimulating factor (G-CSF) increase vs. control” value is about 75 fold, the “IL-7 increase vs. control” value was about 14 fold and the “Granulocyte-colony stimulating factor (G-CSF) increase with IL-6 vs. control” value is given as about 500 fold. The AAT secretion entry with monolayer C3A cells [1] (setting [9]) is “dose-dependent upregulation; also recorded: upregulated; also recorded: dose-dependent up-regulation”. Moreover, in the assay with monolayer C3A cells [1] (setting [10]), the “AAT secretion at 54 h” value is given as “further increased; also recorded: increases with exposure time”. Further, the TNF-α secretion entry in the assay on monolayer C3A cells [1] (setting [11]) is on record as “upregulated; also recorded: low, yet elevated”. Besides, in the assay with monolayer C3A cells [1] (monolayer C3A cells), the IL-10 secretion entry was “increased above the controls; also recorded: upregulated” and the “IL-10 secretion at 48 hr” value is on record as “further increased”. Besides, the IL-1Ra secretion entry in the assay with monolayer C3A cells [1] (setting [12]) is “did not increase”.
Take lipopolysaccharide [LPS]: the IL-1Ra secretion entry in the assay on monolayer C3A cells [2] (LPS 0.01, 0.1, 1, 10 EU/mL) is recorded as “increased; also recorded: upregulated”. The AAT levels entry in the assay with monolayer C3A cells [2] (LPS 0.01-10 EU/mL, higher concentrations = 1 and 10 EU/mL) is “upregulated; also recorded: increased only at higher concentrations”. Also, the IL-1Ra secretion increase entry in the assay on monolayer C3A cells [2] (LPS at all concentrations evaluated (0.01, 0.1, 1, and 10 EU/mL)) is “approximately 2 fold”.
Consider Interleukin-1 beta [IL-1β], for which, in the assay with monolayer C3A cells [1] (setting [4]), the G-CSF increase is 50 fold. The IL-8 increase in the assay with monolayer C3A cells [1] (setting [4]) is reported as 2,000 fold. The SCF increase in the assay on monolayer C3A cells [1] (setting [4]) was 100 fold. In the assay on monolayer C3A cells [1] (setting [4]), the TNFα increase stood at 25 fold. The AAT secretion result in the assay with monolayer C3A cells [1] (setting [5]) is “no apparent effect; also recorded: not affected”; in the assay with monolayer C3A cells [1] (setting [9]), “dose-dependent upregulation; also recorded: upregulated”; with monolayer C3A cells [1] (Examples 1-2, monolayer C3A cells, 24 h, single replicates of pooled triplicate wells, listed as IL-1 β), “dose-dependent up-regulation”. Moreover, the “IL-6-induced fibrinogen expression on addition of IL-1β” value with monolayer C3A cells [1] (Example 3, monolayer C3A cells, IL-1β added to IL-6) is “abrogated”. The “AAT secretion at 54 h” value is reported as “further increased; also recorded: increases with exposure time” in the assay with monolayer C3A cells [1] (setting [10]) and “further increased” in the assay on monolayer C3A cells [1] (Examples 1-2, monolayer C3A cells, listed as IL-1 β). Further, the IL-1Ra secretion entry in the assay with monolayer C3A cells [1] (setting [3]) is on record as “increased; also recorded: upregulated”; in the assay on monolayer C3A cells [1] (setting [12]) it was “did not increase”. In addition, the TNF-α secretion result with monolayer C3A cells [1] (setting [11]) is reported as “upregulated; also recorded: low, yet elevated”. Also, the IL-10 secretion result with monolayer C3A cells [1] (monolayer C3A cells) is reported as “increased above the controls; also recorded: upregulated”. Moreover, the “IL-10 secretion at 48 hr” value in the assay on monolayer C3A cells [1] (monolayer C3A cells) is listed as “further increased”.
